Measurements taken from PubChem BioAssay AID200 (DTP/NCI, 2004).
Where “and” joins values, the source holds several entries; their conditions need not be identical. Equal values may be shown once. Inconclusive results and toxic doses are left out. Where a SMILES comes first, the peptide text is derived from it.

System: B6C3F1 mice, B16 melanoma ip, median survival T/C
Assay: NCI In Vivo Anticancer Drug Screen. Data for tumor model B16 Melanoma (intraperitoneal) in B6C3F1 mice
Conditions: endpoint: median survival time, higher = longer survival
Description: The antitumor activity of compounds was measured in mice bearing transplantable tumors. Survival or tumor size were measured and the results are expressed as the measurement made in the treated group (T) divided by the measurement made in the vehicle treated control group (C). The tumor model used in this assay is B16 Melanoma (intraperitoneal) in B6C3F1 mice

[1] = dose: 1.56 mg/kg/injection, schedule: Q01DX009 (ip), vehicle: saline with Tween-80
[2] = dose: 12.5 mg/kg/injection, schedule: Q01DX009 (ip), vehicle: saline
[3] = dose: 25.0 mg/kg/injection, schedule: Q01DX009 (ip), vehicle: saline
[4] = dose: 50.0 mg/kg/injection, schedule: Q01DX009 (ip), vehicle: saline
[5] = dose: 100.0 mg/kg/injection, schedule: Q01DX009 (ip), vehicle: Klucel (hydroxypropylcellulose) (HPC)
[6] = dose: 200.0 mg/kg/injection, schedule: Q01DX009 (ip), vehicle: Klucel (hydroxypropylcellulose) (HPC)
[7] = dose: 25.0 mg/kg/injection, schedule: Q01DX009 (ip), vehicle: saline with Tween-80
[8] = dose: 50.0 mg/kg/injection, schedule: Q01DX009 (ip), vehicle: saline with Tween-80
[9] = dose: 100.0 mg/kg/injection, schedule: Q01DX009 (ip), vehicle: saline with Tween-80
[10] = dose: 200.0 mg/kg/injection, schedule: Q01DX009 (ip), vehicle: saline with Tween-80
[11] = dose: 12.5 mg/kg/injection, schedule: Q01DX009 (ip), vehicle: saline with Tween-80

Q: What does the source list for Nc1nc(N)c2c(ccc3c2ccn3Cc2cccc([N+](=O)[O-])c2)n1?
A: T/C (dose: 0.19 mg/kg/injection, schedule: Q01DX009 (ip), vehicle: saline with Tween-80): 107 % of control; T/C (dose: 0.2 mg/kg/injection, schedule: Q01DX009 (ip), vehicle: saline with Tween-80): 102 % of control; T/C (dose: 0.38 mg/kg/injection, schedule: Q01DX009 (ip), vehicle: saline with Tween-80): 98 % of control; T/C (dose: 0.4 mg/kg/injection, schedule: Q01DX009 (ip), vehicle: saline with Tween-80): 101 % of control; T/C (dose: 0.75 mg/kg/injection, schedule: Q01DX009 (ip), vehicle: saline with Tween-80): 116 % of control; T/C (dose: 0.78 mg/kg/injection, schedule: Q01DX009 (ip), vehicle: saline with Tween-80): 103 % of control; T/C (dose: 1.5 mg/kg/injection, schedule: Q01DX009 (ip), vehicle: saline with Tween-80): 93 % of control and 100 % of control; T/C [1]: 99 % of control; T/C (dose: 3.0 mg/kg/injection, schedule: Q01DX009 (ip), vehicle: saline with Tween-80): 112 % of control and 103 % of control; T/C (dose: 6.0 mg/kg/injection, schedule: Q01DX009 (ip), vehicle: saline with Tween-80): 108 % of control and 116 % of control

Q: For COC(=O)C(N)Cc1ccc(O)c(O)c1 (stereo unspecified), which T/C [2] is on record?
A: 102 % of control

Q: What about the T/C [3] of the same compound?
A: 88 % of control and 102 % of control

Q: And the T/C (dose: 25.0 mg/kg/injection, schedule: Q01DX012 (ip), vehicle: saline)?
A: 95 % of control

Q: And the T/C (dose: 25.0 mg/kg/injection, schedule: Q01DX024 (ip), vehicle: saline)?
A: 95 % of control

Q: What about the T/C (dose: 25.0 mg/kg/injection, schedule: Q08HX120 (ip), vehicle: saline) of the same compound?
A: 112 % of control

Q: And the T/C [4]?
A: 90 % of control and 100 % of control

Q: What about the T/C (dose: 50.0 mg/kg/injection, schedule: Q01DX012 (ip), vehicle: saline) of the same compound?
A: 94 % of control

Q: And the T/C (dose: 50.0 mg/kg/injection, schedule: Q01DX024 (ip), vehicle: saline)?
A: 97 % of control

Q: What about the T/C (dose: 100.0 mg/kg/injection, schedule: Q01DX009 (ip), vehicle: saline) of the same compound?
A: 94 % of control and 98 % of control and 106 % of control

Q: And the T/C (dose: 100.0 mg/kg/injection, schedule: Q01DX012 (ip), vehicle: saline)?
A: 94 % of control and 101 % of control

Q: And the T/C (dose: 100.0 mg/kg/injection, schedule: Q01DX024 (ip), vehicle: saline)?
A: 91 % of control and 99 % of control

Q: What about the T/C (dose: 100.0 mg/kg/injection, schedule: Q08HX120 (ip), vehicle: saline) of the same compound?
A: 109 % of control

Q: And the T/C (dose: 100.0 mg/kg/injection, schedule: Q#A X040 (ip), vehicle: saline)?
A: 91 % of control

Q: What about the T/C (dose: 200.0 mg/kg/injection, schedule: Q01DX009 (ip), vehicle: saline) of the same compound?
A: 111 % of control and 103 % of control and 106 % of control

Q: And the T/C (dose: 200.0 mg/kg/injection, schedule: Q01DX012 (ip), vehicle: saline)?
A: 96 % of control and 105 % of control

Q: And the T/C (dose: 200.0 mg/kg/injection, schedule: Q01DX024 (ip), vehicle: saline)?
A: 97 % of control and 106 % of control

Q: And the T/C (dose: 200.0 mg/kg/injection, schedule: Q08HX120 (ip), vehicle: saline)?
A: 110 % of control

Q: And the T/C (dose: 200.0 mg/kg/injection, schedule: Q#A X040 (ip), vehicle: saline)?
A: 100 % of control

Q: And the T/C (dose: 400.0 mg/kg/injection, schedule: Q01DX009 (ip), vehicle: saline)?
A: 117 % of control and 100 % of control and 105 % of control

Q: And the T/C (dose: 400.0 mg/kg/injection, schedule: Q01DX012 (ip), vehicle: saline)?
A: 117 % of control and 102 % of control

Q: And the T/C (dose: 400.0 mg/kg/injection, schedule: Q01DX024 (ip), vehicle: saline)?
A: 108 % of control and 104 % of control

Q: What about the T/C (dose: 400.0 mg/kg/injection, schedule: Q#A X040 (ip), vehicle: saline) of the same compound?
A: 95 % of control

Q: And the T/C (dose: 600.0 mg/kg/injection, schedule: Q#A X040 (ip), vehicle: saline)?
A: 95 % of control

Q: What about the T/C (dose: 800.0 mg/kg/injection, schedule: Q01DX009 (ip), vehicle: saline) of the same compound?
A: 117 % of control

Q: And the T/C (dose: 800.0 mg/kg/injection, schedule: Q01DX012 (ip), vehicle: saline)?
A: 116 % of control

Q: Which T/C (dose: 6.25 mg/kg/injection, schedule: Q01DX009 (ip), vehicle: saline) does the source give for O=CC(=O)c1ccc(O)cc1 here?
A: 94 % of control

Q: What about the T/C [2] of the same compound?
A: 99 % of control

Q: What about the T/C [3] of the same compound?
A: 108 % of control

Q: What about the T/C [4] of the same compound?
A: 120 % of control

Q: How did the T/C [5] turn out when CN(CC(=O)O)C(=O)CNC(=O)CNC(=O)OCc1ccccc1 (HELM PEPTIDE1{[O=C(OCc1ccccc1)[*:2]].G.G.[Sar]}$$$$V2.0) was run?
A: 104 % of control

Q: And the T/C [6]?
A: 107 % of control

Q: What about the T/C (dose: 400.0 mg/kg/injection, schedule: Q01DX009 (ip), vehicle: Klucel (hydroxypropylcellulose) (HPC)) of the same compound?
A: 98 % of control

Q: What does the source list for CN(C)C1C(=O)C(C(=O)NP(=O)(NCCCO)N(CCCl)CCCl)=C(O)C2(O)C(=O)C3=C(O)c4c(O)cccc4C(C)(O)C3CC12 (stereo unspecified)?
A: T/C (dose: 12.0 mg/kg/injection, schedule: Q01DX009 (ip), vehicle: saline with Tween-80): 105 % of control; T/C [7]: 103 % of control and 107 % of control; T/C [8]: 118 % of control and 102 % of control; T/C [9]: 121 % of control; T/C [10]: 195 % of control and 219 % of control

Q: How did the T/C (dose: 3.13 mg/kg/injection, schedule: Q01DX009 (ip), vehicle: other) turn out when CN(C)N=Nc1ccc(Cl)c2ncccc12 was run?
A: 115 % of control

Q: And the T/C (dose: 6.25 mg/kg/injection, schedule: Q01DX009 (ip), vehicle: other)?
A: 106 % of control

Q: What about the T/C (dose: 12.5 mg/kg/injection, schedule: Q01DX009 (ip), vehicle: other) of the same compound?
A: 109 % of control

Q: And the T/C (dose: 25.0 mg/kg/injection, schedule: Q01DX009 (ip), vehicle: other)?
A: 117 % of control

Q: And the T/C (dose: 50.0 mg/kg/injection, schedule: Q01DX009 (ip), vehicle: other)?
A: 114 % of control

Q: With N/C(=N\OC(=O)Nc1ccc(CSc2ccc(Cl)cc2)o1)c1ccccn1 as the compound, how does the T/C (dose: 12.5 mg/kg/injection, schedule: Q01DX009 (ip), vehicle: Klucel (hydroxypropylcellulose) (HPC)) read?
A: 97 % of control

Q: And the T/C (dose: 25.0 mg/kg/injection, schedule: Q01DX009 (ip), vehicle: Klucel (hydroxypropylcellulose) (HPC))?
A: 95 % of control

Q: What about the T/C (dose: 50.0 mg/kg/injection, schedule: Q01DX009 (ip), vehicle: Klucel (hydroxypropylcellulose) (HPC)) of the same compound?
A: 91 % of control

Q: What about the T/C [5] of the same compound?
A: 91 % of control

Q: What about the T/C [6] of the same compound?
A: 86 % of control

Q: For CN1C(=O)C(=Cc2ccc(O)cc2)C(=O)N(C)C1=O, which T/C [11] is on record?
A: 97 % of control

Q: What about the T/C [7] of the same compound?
A: 99 % of control

Q: What about the T/C [8] of the same compound?
A: 101 % of control

Q: What about the T/C [9] of the same compound?
A: 104 % of control

Q: What about the T/C [10] of the same compound?
A: 94 % of control

Q: With CN(C)CSCN(C)C as the compound, how does the T/C [1] read?
A: 97 % of control

Q: And the T/C (dose: 3.13 mg/kg/injection, schedule: Q01DX009 (ip), vehicle: saline with Tween-80)?
A: 89 % of control

Q: And the T/C (dose: 6.25 mg/kg/injection, schedule: Q01DX009 (ip), vehicle: saline with Tween-80)?
A: 101 % of control

Q: For Cc1ccc(NC(=O)Oc2ccc(Br)cc2Br)c([N+](=O)[O-])c1, which T/C [11] is on record?
A: 105 % of control

Q: What about the T/C [7] of the same compound?
A: 104 % of control

Q: What about the T/C [8] of the same compound?
A: 105 % of control

Q: And the T/C [9]?
A: 101 % of control

Q: And the T/C [10]?
A: 103 % of control

Q: What about the T/C (dose: 400.0 mg/kg/injection, schedule: Q01DX009 (ip), vehicle: saline with Tween-80) of the same compound?
A: 107 % of control
